Data: patent publication US20040038884A1, “Treatment of tinitus” (priority 2003, published 2004)
Where no end group is shown, it is not given here.

Columns and labels:
[1] = test system: alpha9/alpha10 heteromeric acetylcholine receptor; assay: Block of the acetylcholine receptor of the inner ear (stated finding, no method given)
[2] = test system: outer hair cells (OHCs); assay: Whole-cell patch-clamp recordings of inhibitory postsynaptic currents on outer hair cells; type: cell-based, Wistar rats; conditions: apamine 10 nM; OHCs held at −64 mV, high extracellular K+

| block of the acetylcholine receptor [1] | Compound | inhibition of postsynaptic currents (IPSCs) [2] |
| --- | --- | --- |
| blocked efficiently | CC12CC3CC(C)(C1)CC(N)(C3)C2 [memantine, 3.5-dimethyl-1-adamantan-amine] |  |
|  | apamine (CNCKAPETALCARRCQQH; not fully specified (C-terminus, bridges); cysteine pairing not given here; UniProt P01500 28-45, looked up) | complete inhibition |
